What follows are molecules tested against T1, apelin receptor (APJ) (Homo sapiens, UniProt P35414) (assay: In vitro apelin agonist activity (methods of Giddings et al., Apelin-13 as positive control)). Details: EC50 (nM) Ave, in vitro apelin agonist activity, methods of Giddings et al., Apelin-13 as positive control.
T1 sequence (P35414 1-380): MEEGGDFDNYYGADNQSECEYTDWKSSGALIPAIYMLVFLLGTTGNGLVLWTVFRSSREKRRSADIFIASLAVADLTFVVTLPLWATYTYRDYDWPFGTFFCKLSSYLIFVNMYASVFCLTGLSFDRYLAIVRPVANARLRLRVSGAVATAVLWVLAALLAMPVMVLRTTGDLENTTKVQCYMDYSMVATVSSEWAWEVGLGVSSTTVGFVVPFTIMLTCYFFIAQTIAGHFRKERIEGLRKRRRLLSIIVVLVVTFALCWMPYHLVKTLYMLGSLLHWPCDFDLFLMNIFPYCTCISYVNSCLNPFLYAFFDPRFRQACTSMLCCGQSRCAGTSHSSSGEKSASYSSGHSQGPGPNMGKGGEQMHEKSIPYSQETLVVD
Assay type: cell-based
Text: Characterization of the Apelin Agonist Activity of the Compounds
1:39-47, the contents of which are hereby incorporated by reference in its entirety. Using the methods described in Giddings et al. and Apelin-13 as a positive control.

| SMILES | EC50 |
| --- | --- |
| O=C(C[C@H](CCN1CCOCC1)NC(=O)c1cc(-c2ccccc2C(F)(F)F)n(C2CCCC2)n1)NC1CCC1 [compound 491, (3S)-N-cyclobutyl-3-({1-cyclopentyl-5-[2-(trifluoromethyl)phenyl]-1H-pyrazol-3-yl}formamido)-5-(morpholin-4-yl)pentanamide] | 68 nM |

Same assay, conditions: in vitro apelin agonist activity, methods of Giddings et al., Apelin-13 as positive control; read-out: EC50 (nM) Ave

| SMILES | EC50 |
| --- | --- |
| COc1cccc(OC)c1-c1cc(C(=O)N[C@H](CC(=O)O)Cc2ccccc2)nn1CC(C)C [compound 297, (3S)-3-{[5-(2,6-dimethoxyphenyl)-1-(2-methylpropyl)-1H-pyrazol-3-yl]formamido}-4-phenylbutanoic acid] | > 10000 nM |
| COc1cccc(OC)c1-c1cc(C(=O)N[C@@H](CCc2cccnc2)CC(=O)NC2CCC2)nn1C1CCCC1 [compound 420, (3S)-N-cyclobutyl-3-{[1-cyclopentyl-5-(2,6-dimethoxyphenyl)-1H-pyrazol-3-yl]formamido}-5-(pyridin-3-yl)pentanamide] | 883 nM |
| COc1ccccc1-c1cc(C(=O)N[C@@H](CCN2CCCCC2)CC(=O)NC2CCC2)nn1C1CCCC1 [compound 361, (3S)-N-cyclobutyl-3-{[1-cyclopentyl-5-(2-methoxyphenyl)-1H-pyrazol-3-yl]formamido}-5-(piperidin-1-yl)pentanamide] | 234 nM |
| COc1cccc(OC)c1-c1cc(C(=O)N[C@@H](CC2CC2)C(=O)NC2CCC2)nn1C1CCCC1 [compound 376, (2S)-N-cyclobutyl-2-{[1-cyclopentyl-5-(2,6-dimethoxyphenyl)-1H-pyrazol-3-yl]formamido}-3-cyclopropylpropanamide] | > 10000 nM |
| COc1cccc(OC)c1-c1cc(C(=O)N[C@@H](CCN2CCCCC2)Cc2nnc[nH]2)nn1C1CCCC1 [compound 414] | 200 nM |
| CCc1ccccc1-c1cc(C(=O)N[C@@H](CCN2CCCC(F)(F)C2)CC(=O)O)nn1C1CCCC1 [compound 404, (3S)-3-{[1-cyclopentyl-5-(2-ethylphenyl)-1H-pyrazol-3-yl]formamido}-5-(3,3-difluoropiperidin-1-yl)pentanoic acid] | 65 nM |
| O=C(N[C@@H](CC1CCCC1)C(=O)O)c1cc(-c2ccccc2C(F)(F)F)n(C2CCCC2)n1 [compound 526, (2S)-3-cyclopentyl-2-({1-cyclopentyl-5-[2-(trifluoromethyl)phenyl]-1H-pyrazol-3-yl}formamido)propanoic acid] | 1720 nM |
| COc1cccc(OC)c1-c1cc(C(=O)N[C@@H](CCN2CCN(C)CC2)CC(=O)O)nn1C1CCCC1 [compound 308, (3S)-3-{[1-cyclopentyl-5-(2,6-dimethoxyphenyl)-1H-pyrazol-3-yl]formamido}-5-(4-methylpiperazin-1-yl)pentanoic acid] | > 10000 nM |
| COc1cccc(OC)c1-c1cc(C(=O)N[C@@H](CCN2CCCCC2)CC(=O)N(C)c2nccs2)nn1C1CCCC1 [compound 351, (3S)-3-{[1-cyclopentyl-5-(2,6-dimethoxyphenyl)-1H-pyrazol-3-yl]formamido}-N-methyl-5-(piperidin-1-yl)-N-(1,3-thiazol-2-yl)pentanamide] | 73 nM |
| O=C(N[C@@H](CC1CCCCC1)C(=O)O)c1cc(-c2ccccc2C(F)(F)F)n(C2CCCC2)n1 [compound 577, (2S)-3-cyclohexyl-2-({1-cyclopentyl-5-[2-(trifluoromethyl)phenyl]-1H-pyrazol-3-yl}formamido)propanoic acid] | 1030 nM |
| COc1cccc(OC)c1-c1cc(C(=O)N[C@H](CCO)CCN2CCCCC2)nn1C1CCCC1 [compound 358] | > 10000 nM |
| COc1cccc(OC)c1-c1cc(C(=O)N[C@@H](CCN2CCCCC2)CC(=O)NC2CCOCC2)nn1C1CCCC1 [compound 332, (3S)-3-{[1-cyclopentyl-5-(2,6-dimethoxyphenyl)-1H-pyrazol-3-yl]formamido}-N-(oxan-4-yl)-5-(piperidin-1-yl)pentanamide] | 391 nM |
| O=C(C[C@H](CCN1CCCCC1)NC(=O)c1cc(-c2cccs2)n(C2CCCC2)n1)NC1CCC1 [compound 362, (3S)-N-cyclobutyl-3-{[1-cyclopentyl-5-(thiophen-2-yl)-1H-pyrazol-3-yl]formamido}-5-(piperidin-1-yl)pentanamide] | 5860 nM |
| COc1cccc(OC)c1-c1cc(C(=O)N[C@@H](CCN2CCCCC2)Cc2nnc(C)o2)nn1C1CCCC1 [compound 343, 1-cyclopentyl-5-(2,6-dimethoxyphenyl)-N-[(2S)-1-(5-methyl-1,3,4-oxadiazol-2-yl)-4-(piperidin-1-yl)butan-2-yl]-1H-pyrazole-3-carboxamide] | 1530 nM |
| CS(=O)(=O)c1ccccc1-c1cc(C(=O)N[C@@H](CCN2CCCCC2)CC(=O)NC2CCC2)nn1C1CCCC1 [compound 367, (3S)-N-cyclobutyl-3-{[1-cyclopentyl-5-(2-methanesulfonylphenyl)-1H-pyrazol-3-yl]formamido}-5-(piperidin-1-yl)pentanamide] | 2970 nM |

Other lines, results leading:

| EC50 | SMILES |
| --- | --- |
| 45 nM | O=C(C[C@H](CCN1CCCCC1)NC(=O)c1cc(-c2ccccc2C(F)(F)F)n(C2CCCC2)n1)NC1CC(F)(F)C1 [compound 520, (3S)-3-({1-cyclopentyl-5-[2-(trifluoromethyl)phenyl]-1H-pyrazol-3-yl}formamido)-N-(3,3-difluorocyclobutyl)-5-(piperidin-1-yl)pentanamide] |
| 79 nM | Cc1cnn(CC[C@@H](CC(=O)N(C)c2nccs2)NC(=O)c2cc(-c3ccccc3C(F)(F)F)n(C3CCCC3)n2)c1 [compound 500, (3S)-3-({1-cyclopentyl-5-[2-(trifluoromethyl)phenyl]-1H-pyrazol-3-yl}formamido)-N-methyl-5-(4-methyl-1H-pyrazol-1-yl)-N-(1,3-thiazol-2-yl)pentanamide] |
| > 10000 nM | O=C(O)C[C@H](CN1CCC(F)(F)C1)NC(=O)c1cc(-c2ccccc2C(F)(F)F)n(C2CCCC2)n1 [compound 518, (3R)-3-({1-cyclopentyl-5-[2-(trifluoromethyl)phenyl]-1H-pyrazol-3-yl}formamido)-4-(3,3-difluoropyrrolidin-1-yl)butanoic acid] |
| 215 nM | O=C(O)C[C@H](CCN1CCCCC1)NC(=O)c1cc(-c2ccccc2C(F)(F)F)n(C2CCCC2)n1 [compound 494, (3S)-3-({1-cyclopentyl-5-[2-(trifluoromethyl)phenyl]-1H-pyrazol-3-yl}formamido)-5-(piperidin-1-yl)pentanoic acid] |
| 648 nM | CC(C[C@@H](CC(=O)O)NC(=O)c1cc(-c2ccccc2C(F)(F)F)n(C2CCCC2)n1)N1CCC(F)(F)C1 (stereo partly drawn) [compound 567, (3S)-3-({1-cyclopentyl-5-[2-(trifluoromethyl)phenyl]-1H-pyrazol-3-yl}formamido)-5-(3,3-difluoropyrrolidin-1-yl)hexanoic acid] |
| 261 nM | CC1(C)CCCCN1CC[C@@H](CC(=O)NC1CCC1)NC(=O)c1cc(-c2ccccc2C(F)(F)F)n(C2CCCC2)n1 [compound 517, (3S)-N-cyclobutyl-3-({1-cyclopentyl-5-[2-(trifluoromethyl)phenyl]-1H-pyrazol-3-yl}formamido)-5-(2,2-dimethylpiperidin-1-yl)pentanamide] |
| 1570 nM | O=C(O)C[C@H](CCN1CCCC(F)(F)C1)NC(=O)c1cc(-c2ccc(Cl)cc2C(F)(F)F)n(C2CCCC2)n1 [compound 555, (3S)-3-({5-[4-chloro-2-(trifluoromethyl)phenyl]-1-cyclopentyl-1H-pyrazol-3-yl}formamido)-5-(3,3-difluoropiperidin-1-yl)pentanoic acid] |
| 0.86 nM | O=C(C[C@H](CCN1CCCC(F)(F)C1)NC(=O)c1cc(-c2ncccc2C(F)(F)F)n(C2CCCC2)n1)NC1CCC1 [compound 479, (3S)-N-cyclobutyl-3-({1-cyclopentyl-5-[3-(trifluoromethyl)pyridin-2-yl]-1H-pyrazol-3-yl}formamido)-5-(3,3-difluoropiperidin-1-yl)pentanamide] |
| 1040 nM | NNC(=O)C[C@H](CCc1ccc(F)cc1)NC(=O)c1cc(-c2ccccc2C(F)(F)F)n(C2CCCC2)n1 [compound 464] |
| 44 nM | CC(F)(F)c1ccccc1-c1cc(C(=O)N[C@@H](CCN2C[C@H](F)[C@@H](F)C2)CC(=O)O)nn1C1CCCC1 (stereo in doubt) [compound 594, (3S)-3-({1-cyclopentyl-5-[2-(1,1-difluoroethyl)phenyl]-1H-pyrazol-3-yl}formamido)-5-[trans-3,4-difluoropyrrolidin-1-yl]pentanoic acid] |
| 1060 nM | O=C(O)C[C@H](CC(=O)N1CCCC(F)(F)C1)NC(=O)c1cc(-c2ccccc2C(F)(F)F)n(C2CCCC2)n1 [compound 509, (3S)-3-({1-cyclopentyl-5-[2-(trifluoromethyl)phenyl]-1H-pyrazol-3-yl}formamido)-5-(3,3-difluoropiperidin-1-yl)-5-oxopentanoic acid] |
| > 10000 nM | O=C(O)C[C@H](CN1CCCC(F)(F)C1)NC(=O)c1cc(-c2ccccc2C(F)(F)F)n(C2CCCC2)n1 [compound 519, (3R)-3-({1-cyclopentyl-5-[2-(trifluoromethyl)phenyl]-1H-pyrazol-3-yl]formamido)-4-(3,3-difluoropiperidin-1-yl)butanoic acid] |
| 158 nM | CC(C(=O)NC1CCC1)[C@H](CCN1CC2C(C1)C2(F)F)NC(=O)c1cc(-c2ccccc2C(F)(F)F)n(C2CCCC2)n1 (stereo partly drawn) [compound 636, (3S)-N-cyclobutyl-3-({1-cyclopentyl-5-[2-(trifluoromethyl)phenyl]-1H-pyrazol-3-yl}formamido)-5-{6,6-difluoro-3-azabicyclo[3.1.0]hexan-3-yl}-2-methylpentanamide] |

— patent US11535630B2, “Apelin receptor (APJ) agonists and uses thereof” (Research Triangle Institute, priority 2015, dated 2022)
